From patent US7510825B2, “Kits and methods for detection of apoptotic cells” (NST NeuroSurvival Technologies Ltd, priority 2000, dated 2009) come the findings set out here.

Assay [1] relates to C26 colon carcinoma tumors. In words: DDC binding versus TUNEL and H&E in colon carcinoma after Doxorubicin. The assay is classed as in vivo, mice. As to conditions: 48 h after Doxorubicin 20 mg/kg; consecutive slides. How it is done: A. Administration of DDC in-vivo: Injection of 200 μl of DDC intravenously. Following 1-2 hours, animal is sacrificed, and the desired organ is placed in a test tube or on a small plate, suitable for liquid nitrogen freezing. The plate is then covered with an aluminum foil, and transferred to liquid nitrogen. Following 5-30 minutes the specimen is being frozen to −80° C. and kept at −80° C. for at least 16 hr. B. Analysis of the Specimen: • a. Whole organ imaging Ex-vivo whole organ fluorescence imaging may be carried out on freshly excised specimen, that can be analyzed under a stereomicroscope (such as Leica MZ FL III, Leica Switzerland). DDC may be visualized using 360cx and >420cm nm filter set. Emitted fluorescence can be imaged using appropriate camera and software, such as a Leica DC 300F Distal camera and images can be processed and analyzed by Leica QWin Lite software. • b. Histological analysis, from the frozen organ or tissue, 4 μm cryosections are prepared on slides. Analysis of the tissue sections can be performed using a fluorescence microscope with a UV filter characterized by excitation at 360-370 nm (band pass) and emission at 420 nm (barrier filter) In case that staining of the examined tissue is desired, the following procedures can be applied: […]

Assay [2] concerns neuronal cells of the injured brain area. The assay is described as follows: Detection by DDC of apoptosis following traumatic brain injury (TBI). The assay is classed as in vivo, mice. The conditions noted are these: DDC 24 hr after traumatic injury, brain excised after 2 hr. The protocol: A. Administration of DDC in-vivo: Injection of 200 μl of DDC intravenously. Following 1-2 hours, animal is sacrificed, and the desired organ is placed in a test tube or on a small plate, suitable for liquid nitrogen freezing. The plate is then covered with an aluminum foil, and transferred to liquid nitrogen. Following 5-30 minutes the specimen is being frozen to −80° C. and kept at −80° C. for at least 16 hr. B. Analysis of the Specimen: • a. Whole organ imaging Ex-vivo whole organ fluorescence imaging may be carried out on freshly excised specimen, that can be analyzed under a stereomicroscope (such as Leica MZ FL III, Leica Switzerland). DDC may be visualized using 360cx and >420cm nm filter set. Emitted fluorescence can be imaged using appropriate camera and software, such as a Leica DC 300F Distal camera and images can be processed and analyzed by Leica QWin Lite software. • b. Histological analysis, from the frozen organ or tissue, 4 μm cryosections are prepared on slides. Analysis of the tissue sections can be performed using a fluorescence microscope with a UV filter characterized by excitation at 360-370 nm (band pass) and emission at 420 nm (barrier filter) In case that staining of the examined tissue is desired, the following procedures can be applied:
TBI model was performed on Balb/C, 8-9 weeks old, according to the protocol detailed in Yun Chen et al., 1996. […]

The subject of assay [3] is C26 colon carcinoma cells. The assay is described as follows: Time course of DDC binding to C26 colon carcinoma cells treated with BiCNU. The format is cell-based. The conditions noted are these: 0.5 mM BiCNU for 2 hr. How it is done:
For microscopic analysis the concentration of cells should be within 1-2×10^7/ml. […] If fixation is needed, it should be performed after DDC staining. • 1. Adjusting the cells to 1-2×10^7/ml in buffer. • 2. Transferring 96 μl from the cell suspension to an eppendorf and staining the cells by adding 4 μl from the DDC solution. Incubating for 10-40 minutes at RT protected from light. • 3. A double labeling could be conducted with PI, if desired. In such a case, 1 μl is added from the PI solution. • 4, Placing the cell suspension on a glass slide. Covering the cells with a glass coverslip. Alternatively, for analyzing adherent cells, cells may grow directly on coverslip. Staining the cells by incubation with DDC (4 μl of DDC/96 μl buffer reaction) or 10-40 minutes and PI (1 μl). Covering the slide with a coverslip and visualizing the cells. If desired, at that point the cells can be washed and fixed in 1% formaldehyde before visualization. Mounting should be done in a solution of 50% glycerol/PBS (v/v). • 5. Observing the cells under fluorescent or confocal microscope equipped with the appropriate UV filter (excitation at 360-370 nm, band pass, and emission at 420 nm, barrier filter. Using a Triple filter (Hoechst/FITC/Texas Red) allows concomitant observation of both DDC and PI. Quantitative Assay for DDC Accumulation using Fluorescene Spectroscopy […]

Assay [4] has as its system C26 colon carcinoma cells. In words: Staining by DDC of C26 colon carcinoma cells treated with BiCNU, fluorescent microscopy. The assay is classed as cell-based. How it is done: For microscopic analysis the concentration of cells should be within 1-2×10^7/ml. […] If fixation is needed, it should be performed after DDC staining. • 1. Adjusting the cells to 1-2×10^7/ml in buffer. • 2. Transferring 96 μl from the cell suspension to an eppendorf and staining the cells by adding 4 μl from the DDC solution. Incubating for 10-40 minutes at RT protected from light. • 3. A double labeling could be conducted with PI, if desired. In such a case, 1 μl is added from the PI solution. • 4, Placing the cell suspension on a glass slide. Covering the cells with a glass coverslip. Alternatively, for analyzing adherent cells, cells may grow directly on coverslip. Staining the cells by incubation with DDC (4 μl of DDC/96 μl buffer reaction) or 10-40 minutes and PI (1 μl). Covering the slide with a coverslip and visualizing the cells. […] Observing the cells under fluorescent or confocal microscope equipped with the appropriate UV filter (excitation at 360-370 nm, band pass, and emission at 420 nm, barrier filter. Using a Triple filter (Hoechst/FITC/Texas Red) allows concomitant observation of both DDC and PI. Quantitative Assay for DDC Accumulation using Fluorescene Spectroscopy
26 colon carcinoma cells were treated with 0.5 mM BiCNU for 2 hr and stained with DDC (as detailed in the DDC protocols IIIC). Cells were analyzed by fluorescent microscope under a UV filter.

For the next assay, the system named is platelets. The assay is described as follows: Selective binding of DDC to activated platelets, flow cytometry. The assay is classed as cell-based. The conditions noted are these: 10 μM DDC for 5 minutes. The protocol:
The selective binding of DDC to activated platelets was determined using flow cytometric (FACS) analysis. Platelet-rich plasma was obtained from healthy volunteers. 10^9 of the fresh platelets were centrifuged (5 minutes, 380×g), washed and re-suspended in Tyrode's buffer (137 mM NaCl; 2.8 mM KCl; 1 mM MgCl2, 12 mM NaHCO3; 0.4 mM Na2HPO4; 5.5 mM D-glucose and 10 mM Hepes pH 7.4; 0.35% BSA). The purified platelets were kept on ice, and served as controls.
For activation, 200 μl of washed platelets were incubated with a mixture of 0.05 units/ml of thrombin and 5 μg/ml collagen for 5 min. at 37°, in the presence of 2 mM CaCl2 in a final volume of 1 ml. Following incubation, the platelets were centrifuged (2 min. at 10^4 rpm) and resuspended in 1 ml of Tyrode's buffer.
Activated and control non-treated platelets were incubated with 10 μM of DDC for 5 minutes at room temperature. […] Excitation was at 360 nm and emission was measured at 530 nm. […] While only a small fraction of the control platelets manifested binding of DDC (3.6% of the population), platelet activation caused 81% of the platelet population to acquire a marked DDC binding, reflected as a distinct shift to higher fluorescence intensity. As shown in tile FACS histogram in FIG. 21B, activation was associated with a major shift of the whole platelet population to higher fluorescence intensity. […]
Background: In flow cytometry, cells or beads pass a laser one at a time.

With `CN(C)c1cccc2c(S(=O)(=O)NC(CSSCC(NS(=O)(=O)c3cccc4c(N(C)C)cccc34)C(=O)O)C(=O)O)cccc12` (stereo not shown) [DDC], the “correlation of DDC staining with H&E and TUNEL staining” value in assay [1] is “highly correlated with both H&E (C) and TUNEL (B) staining”. In addition, in assay [2], the “correlation of DDC staining with H&E staining” value is given as “correlated with H&E staining”. Moreover, in assay [3], the “time to staining of apoptotic cells” value is not above 40 s. Besides, the “stained cells in culture” value in assay [4] (0.5 mM BiCNU for 2 hr) was “marked increase in the number of the stained cells”; in assay [4] (control culture) it was “small percentage of stained cells”. Besides, the “fraction of platelet population binding DDC” value turned out to be 3.6% with platelets (control platelets); 81% with platelets (platelets activated by thrombin and collagen).
